Laboratory results from PubChem BioAssay AID1508591.

Details: rat; liver microsomes; pH 7.4; 15.0 min; 1.0 µM

SMILES | half-life
CCN1CCN(C(=O)CCCn2nc(C)c3c(C)n(-c4ccc(C)cc4)nc3c2=O)CC1 | 22.2 min
CCN(CC)CCCCNc1ncc2cc(-c3c(Cl)cccc3Cl)c(NC(=O)NC(C)(C)C)nc2n1 | > 30 min
CC(C)(C)OC(=O)N1CCN(c2ccc(NCc3ccc(-c4ccc(C#N)cc4)o3)cc2)CC1 | 3.62 min
Cc1ccc(S(=O)(=O)Nc2ncccc2C(=O)Nc2nc(-c3ccccc3)cs2)cc1 | 14 min
C=CC(=O)N1CCCN(c2cc(NCCC(=O)O)nc(-c3ccccn3)n2)CC1 | > 30 min
CCOC(=O)c1ccc(NC(=O)CSc2nc3c(cc2C#N)N2CCC3CC2)cc1 | 4.26 min
O=C(Nc1ncc(Cc2ccc(C(F)(F)F)cc2)s1)c1cnc(-c2ccccc2)s1 | > 30 min
COc1ccc(CCNC(=O)c2cc3c(=O)n4ccccc4nc3n(CCCN3CCOCC3)c2=N)cc1 | 8.26 min
Cc1ccccc1C(=O)N1CCc2cc(-n3cc(NC(=O)Cc4ccccc4)cn3)ccc21 | 11 min
N=c1c2c(ncn1-c1ccccc1)Oc1ccc3ccccc3c1C2c1ccc2c(c1)CCO2 (stereo not given) | 10.1 min
Cc1cc(Cl)ccc1COc1ccnn1-c1cc(C(=O)O)ccn1 | > 30 min
c1ccc(CNc2nc(NCc3ccccc3)c3ccccc3n2)cc1 | 5.2 min
CC(=O)Nc1ccc(NC(=O)C(NS(=O)(=O)c2ccc(Br)s2)c2ccccc2)cc1 (stereo not given) | 8.13 min
CCNC(=O)c1ccc(-c2ccc3ncnc(NCC4CCCO4)c3c2)o1 (stereo not given) | > 30 min
COc1ccc(N2Cc3cccc(C(=O)Nc4ccc(C(C)C)cc4)c3C2=O)cc1 | > 30 min
O=C(Nc1ccc(Cl)cc1Cl)c1cnc2ccccc2n1 | 3 min
COc1ccc(-c2nc(Nc3ccc(F)c(F)c3)c3ccccc3n2)cc1 | > 30 min
Cc1ccc(-c2ccc(CNc3nc(-c4ccccc4C(C)C)ncc3C)cc2)cn1 | 4.28 min
CC(C)c1ccc(OCc2nc3c(n2Cc2ccccc2)C(=O)N(CC2CC2)CCN3)cc1 | 1.82 min
Cc1cc(SCc2sc(-c3ccc(C(F)(F)F)cc3)nc2C)ccc1OCC(=O)O | > 30 min
O=C(O)c1cccc(-c2cnc3ccccc3c2)c1 | > 30 min
COc1ccccc1CNc1ccc(N2CCCCC2)cc1 | 2.19 min
Cc1ccc(-c2nnc(N3CCC(C(N)=O)CC3)s2)cc1 | 6.38 min
Cc1ccnc(N=C(N)N2CCN(c3cccc(C(F)(F)F)c3)CC2)c1 | 2.26 min
O=C(Nc1ncc(Cc2ccc(C(F)(F)F)cc2)s1)c1ccc(-c2cccnc2)o1 | > 30 min

SMILES | half-life
Cc1cccc(C(=O)N2CCc3cc(-c4nc(NC(=O)Cc5ccc6c(c5)OCO6)sc4C)ccc32)c1 | 4.4 min
O=C(Nc1ccc(OC(F)(F)Cl)cc1)c1cnc(N2CC[C@@H](O)C2)c(-c2ccn[nH]2)c1 | > 30 min
CCOC(=O)C1CCN(c2ncnc3c2c(-c2ccccc2)cn3-c2ccccc2)CC1 | 1.69 min
CCCc1oc2ccc(NS(=O)(=O)c3ccc(OC)cc3)cc2c1C(=O)OCC | 1.37 min
O=C(NCCCO)c1ccc(-c2ncc3cnc(-c4cccc(F)c4)cn23)cc1 | > 30 min
Cc1ccc(S(=O)(=O)Nc2cnccc2C(=O)Nc2nc(C3CCC3)cs2)cc1 | 5 min
Cc1nc2ccc(NC(=O)c3cc(S(=O)(=O)N(C)c4ccccc4)ccc3Cl)cc2s1 | 1.55 min
Clc1cccc(Nc2nc(-c3ccncc3)nc3ccccc23)c1 | 7.7 min
O=c1[nH]cnc2c1ccn2C1OC(CO)C(O)C1O (stereo not given) | > 30 min
COc1cccc(C(=O)Nc2ccc([S+](=O)([O-])Nc3nccs3)cc2)c1O | > 30 min
COC(=O)Nc1nc2ccc(SC(C)C)cc2[nH]1 | 9.99 min
CC(=O)Nc1ccc(C(=O)Nc2ccc3c(c2)N(C2CCCC2)C(=O)c2ccccc2S3)cc1 | 2.21 min
O=C1CCCC2=C1C(c1[nH]ncc1Cl)N=C(Nc1nc3cccc(Cl)c3o1)N2 (stereo not given) | 4.5 min
COc1cccc(-c2cn3c(n2)sc2cc(C(=O)NCCc4ccc(OC)c(OC)c4)ccc23)c1 | 2.26 min
COc1cccc(N2CCN(c3ncc4c(n3)CCN(Cc3ccc(Br)cc3)C4)CC2)c1 | 18.2 min
CC(=O)Nc1ccc(-c2csc(N3CCC(C(N)=O)CC3)n2)cc1 | > 30 min
O=C(c1ccc2c(c1)ncn2-c1ccc(Cl)cc1)N1CCCCC1 | 9.8 min
CN(C)c1cc(-c2nc(Nc3ccc(F)c(F)c3)c3ccccc3n2)ccn1 | 13 min
CNC1(c2ccccc2Cl)CCCCC1=O (stereo not given) | 4.44 min
CC(C)=CCNc1ncnc2nc[nH]c12 | > 30 min
Cc1ccc(S(=O)(=O)Nc2cnccc2C(=O)Nc2nc(-c3ccncc3)cs2)cc1 | 17 min
O=C(Nc1ncc(Cc2ccc(C(F)(F)F)cc2)s1)c1cccc(-c2ccccc2)c1 | > 30 min
COc1ccc(-c2cc3nccn3c(Nc3ncccc3C(N)=O)n2)cc1OC | > 30 min
Nc1ccccc1CNc1ccc(S(=O)(=O)Nc2nccs2)cc1 | > 30 min
Cc1c(Cl)cccc1-n1ncc(C(=O)Nc2ccc(Br)cc2F)c1C1CCNCC1 | 9.8 min

SMILES | half-life
CCCCC1CCC(C(=O)Nc2ccc(S(=O)(=O)Nc3nccs3)cc2)CC1 (stereo not given) | > 30 min
COc1ccc(NC(=O)c2[nH]c(C)c(C(C)=O)c2C)cc1S(=O)(=O)N1CCCCC1 | 6 min
COc1ccc(Cn2c(C(=O)O)c(CNCc3cccc(OC)c3)c3ccc(C)cc32)cc1 | 11.6 min
Cc1ccc(-c2nc(C)c(C(=O)Nc3ccc4c(c3)C(=O)N3CCC[C@H]3C(=O)N4)s2)cc1 | 27.2 min
COc1ccccc1Nc1ccnc(N2CCN(C(=O)c3ccccc3Cl)CC2)n1 | 7.9 min
CSc1ccc(/C=C/c2nc3ccccc3n2S(=O)(=O)c2cccc(Cl)c2)cc1 | 3.54 min
CCCN1CNc2c(c(=O)[nH]c(=S)n2Cc2ccc(OC)c(OC)c2)C1 | > 30 min
Cc1ccc([S+](=O)([O-])n2cc(Cc3ccc(-c4ccccc4)cc3)c3ccccc32)cc1 | 22 min
O=C(Nc1ncc(Cc2cccc(C(F)(F)F)c2)s1)c1ccc(-c2cccc([N+](=O)[O-])c2)o1 | > 30 min
COC(=O)c1ccc(O)c2ncc(N3CCN(C)CC3)cc12 | 4.16 min
CC[C@@H](CO)NC(=O)[C@@H]1C=C2c3cccc4c3c(cn4C)C[C@H]2N(C)C1 | > 30 min
CN(C)CCN1C(=O)c2cccc3cc(N)cc(c23)C1=O | > 30 min
CCN1C(=O)c2ccccc2[S@](=O)c2ccc(C(=O)NCc3ccc(F)cc3)cc21 | 12 min
NC(=O)C1CCN(c2nc(-c3ccccc3Br)cs2)CC1 | 2.86 min
COc1ccc(NC2CCCN(C(=O)CCc3ccccc3F)C2)cc1 (stereo not given) | 2.36 min
COC(=O)c1c(NC(=O)Cc2coc3cc(C)ccc23)sc2c1CCC2 | 2.31 min
O=[N+]([O-])c1cccc(CNc2ccc(S(=O)(=O)Nc3nccs3)cc2)c1O | > 30 min
NC(=O)c1ccc(-c2nc3c([nH]2)CN(C(=O)CN2CCOCC2)CC3)cc1 | > 30 min
CCOc1ccc(N2C(=O)c3n[nH]c(-c4cccs4)c3C2c2cccc(F)c2)cc1 (stereo not given) | 14.2 min
Cc1nc(-c2ccco2)cc([C@H]2CN3CC[C@H]2C[C@@H]3CNC(=O)NC2CCCCC2)n1 | 29.6 min
NC(=O)C1CCN(c2nc(-c3ccccc3C(F)(F)F)cs2)CC1 | 5.58 min
Cc1noc(C)c1-c1ccc2ncnc(NCc3ccc4[nH]ccc4c3)c2c1 | 3.2 min
CCOc1ccc(CCNC(=O)c2cc3sccc3n2Cc2ccccc2)cc1OCC | 1.7 min
Cc1nn(-c2ccccc2)c2nc(C3CC3)cc(C(=O)Nc3ccc(F)cc3)c12 | > 30 min
CCCNc1oc(-c2cccc3ccccc23)nc1C#N | 13 min

SMILES | half-life
CC[C@H]1NC(=O)[C@@H](NC(=O)c2ncccc2O)[C@@H](C)OC(=O)[C@H](c2ccccc2)NC(=O)[C@@H]2CC(=O)CCN2C(=O)[C@H](Cc2ccccc2)N(C)C(=O)[C@@H]2CCCN2C1=O | > 30 min
O=c1[nH]nc(Sc2ncc([N+](=O)[O-])s2)n1-c1ccc2c(c1)OCCO2 | 1.02 min
COc1ccc(NC(=O)C23CC4CC(CC(C4)C2)C3)cc1[S+](=O)([O-])Nc1ccc(Br)cc1 | 5 min
Cc1cccc2nc(-c3ccccn3)c(Nc3ccc(F)cc3)n12 | 6.75 min
Cc1ccc(-n2ncc(C(=O)NCCN3CCC(Cc4ccccc4)CC3)c2C2CCN(C(=O)OC(C)(C)C)CC2)cc1 | 9.29 min
CCN(CC)S(=O)(=O)c1cccc(C(=O)Nc2ccc(C#N)cc2)c1 | 3.8 min
COc1ccnc(NC(=S)N2CCN(c3ccc(Cl)c(Cl)c3)CC2)c1 | 20 min
CC(C)c1ccccc1-c1ncc(F)c(NCC2CCN(c3cnccn3)C2)n1 (stereo not given) | 2.2 min
O=C(Nc1ncc(Cc2ccc(C(F)(F)F)cc2)s1)c1cn(-c2ccccc2)cn1 | > 30 min
Fc1ccc(CNc2cc3c(cn2)CN(Cc2ccncc2)CCN3)cc1 | 15.9 min
O=C(Nc1ccc(S(=O)(=O)N2CCN(Cc3ccccc3)CC2)cc1)c1cnccn1 | 1.8 min
Fc1cc(Nc2nc(-c3ccncc3)nc3ccccc23)ccc1N1CCCC1 | 5.8 min
CO[C@@H]1/C=C\O[C@@]2(C)Oc3c(C)c(O)c4c(c3C2=O)C(=N[C@H]2CC[C@H](O)O[C@@H]2C)C=C(NC(=O)/C(C)=C\C(=O)[C@@H]2C[C@@H]2[C@@H](O)[C@H](C)[C@@H](O)[C@H](C)[C@H](OC(C)=O)[C@@H]1C)C4=O | 9.93 min
FC(F)(F)c1cccc(N2CCN(C(=S)Nc3nccc4ccccc34)CC2)c1 | > 30 min
Cn1c2ccccc2c2c3c(c4c5ccccc5n(CCC#N)c4c21)CNC3=O | 4.29 min
Fc1cc(Nc2nc(-c3ccncc3)nc3ccccc23)ccc1-c1ccc(F)c(F)c1F | 24 min
O=S(=O)(Nc1ccccc1)c1ccc(NCc2ccc(Br)cc2O)cc1 | 2 min
CCN1CCCC1CNCc1ccccc1 (stereo not given) | 2.5 min
COc1ccc(OC)c(CN2CCNc3cc(Nc4ccccc4)ncc3C2)c1 | 2.23 min
CCOc1ccc(C2C(C(=O)Nc3ccccc3OC)=C(C)Nc3c(C(=O)Nc4cccc(C)c4)cnn32)cc1 (stereo not given) | 4.18 min
CC(=O)N1CCN(c2ccc(OCc3nn(C)c(C)c3-c3cccc4c(CCCOc5cc(C)c(Cl)c(C)c5)c(C(=O)O)n(Cc5cccnc5)c34)cc2)CC1 | 8.9 min
Cc1ccc(Cl)cc1NS(=O)(=O)c1cc2c(cc1F)NC(=O)CC2 | 4.97 min
O=S(=O)(Nc1nccs1)c1ccc(NCc2ccccc2O)cc1 | 24 min
COc1ccc(CN2C(=O)[C@@H]3C[C@@H](CN3Cc3cccs3)Oc3ccccc32)cc1 | 1.2 min
Cc1ccc(-n2nc3c(N4CCCC(C(=O)NCc5ccccc5C)C4)nnc(C)c3c2C)cc1 (stereo not given) | 2.1 min
